The text below walks through data of PubChem BioAssay AID254 (DTP/NCI, 2004).

The experiment deals with L1210 leukemia iv in BDF1 mice, survival T/C. Briefly: NCI In Vivo Anticancer Drug Screen. Data for tumor model L1210 Leukemia (intravenous) in B6D2F1 (BDF1) mice. As to conditions: higher = longer survival. Here is the method: The antitumor activity of compounds was measured in mice bearing transplantable tumors. Survival or tumor size were measured and the results are expressed as the measurement made in the treated group (T) divided by the measurement made in the vehicle treated control group (C). The tumor model used in this assay is L1210 Leukemia (intravenous) in B6D2F1 (BDF1) mice

Several values for one entry are separate records, joined by “and”; a condition that tells them apart may be missing. Equal values may be shown once. Inconclusive results and toxic doses are left out.

On to `N[C@@H](Cc1ccc(N(CCCl)CCCl)cc1)C(=O)O`, for which the T/C by setting is: (endpoint: mean survival time, dose: 0.1 mg/kg/injection, schedule: Q01DX015 (ip), vehicle: carboxymethylcellulose (CMC)) 94 % of control and 103 % of control; (endpoint: mean survival time, dose: 0.2 mg/kg/injection, schedule: Q01DX015 (ip), vehicle: carboxymethylcellulose (CMC)) 107 % of control and 96 % of control; (endpoint: mean survival time, dose: 0.4 mg/kg/injection, schedule: Q01DX015 (ip), vehicle: carboxymethylcellulose (CMC)) 107 % of control and 98 % of control; (endpoint: mean survival time, dose: 0.8 mg/kg/injection, schedule: Q01DX015 (ip), vehicle: carboxymethylcellulose (CMC)) 100 % of control and 103 % of control; (endpoint: mean survival time, dose: 1.13 mg/kg/injection, schedule: Q01DX001 (ip), vehicle: carboxymethylcellulose (CMC)) 105 % of control; (endpoint: mean survival time, dose: 1.6 mg/kg/injection, schedule: Q01DX015 (ip), vehicle: carboxymethylcellulose (CMC)) 107 % of control and 101 % of control. Besides, the T/C by setting is: (endpoint: mean survival time, dose: 1.7 mg/kg/injection, schedule: Q01DX001 (ip), vehicle: carboxymethylcellulose (CMC)) 95 % of control and 102 % of control; (endpoint: mean survival time, dose: 2.25 mg/kg/injection, schedule: Q01DX001 (ip), vehicle: carboxymethylcellulose (CMC)) 109 % of control and 96 % of control; (endpoint: mean survival time, dose: 3.0 mg/kg/injection, schedule: Q01DX001 (ip), vehicle: carboxymethylcellulose (CMC)) 106 % of control and 97 % of control; (endpoint: mean survival time, dose: 4.5 mg/kg/injection, schedule: Q01DX001 (ip), vehicle: carboxymethylcellulose (CMC)) 105 % of control and 113 % of control; (endpoint: mean survival time, dose: 4.75 mg/kg/injection, schedule: Q01DX001 (ip), vehicle: Klucel (hydroxypropylcellulose) (HPC)) 104 % of control and 105 % of control; (endpoint: mean survival time, dose: 7.0 mg/kg/injection, schedule: Q01DX001 (ip), vehicle: carboxymethylcellulose (CMC)) 105 % of control. In addition, the T/C is 155 % of control (endpoint: mean survival time, dose: 9.0 mg/kg/injection, schedule: Q01DX001 (ip), vehicle: carboxymethylcellulose (CMC)); 181 % of control (endpoint: mean survival time, dose: 14.0 mg/kg/injection, schedule: Q01DX001 (ip), vehicle: carboxymethylcellulose (CMC)); 177 % of control (endpoint: mean survival time, dose: 14.25 mg/kg/injection, schedule: Q01DX001 (ip), vehicle: Klucel (hydroxypropylcellulose) (HPC)); 163 % of control and 195 % of control (endpoint: mean survival time, dose: 15.0 mg/kg/injection, schedule: Q01DX001 (ip), vehicle: saline); 190 % of control and 255 % of control (endpoint: mean survival time, dose: 18.0 mg/kg/injection, schedule: Q01DX001 (ip), vehicle: carboxymethylcellulose (CMC)); 214 % of control and 215 % of control (endpoint: mean survival time, dose: 19.0 mg/kg/injection, schedule: Q01DX001 (ip), vehicle: Klucel (hydroxypropylcellulose) (HPC)). Also, the T/C was 177 % of control (endpoint: mean survival time, dose: 23.75 mg/kg/injection, schedule: Q01DX001 (ip), vehicle: Klucel (hydroxypropylcellulose) (HPC)) and 206 % of control (endpoint: mean survival time, dose: 29.0 mg/kg/injection, schedule: Q01DX001 (ip), vehicle: carboxymethylcellulose (CMC)).

`O=NN(CCCl)C(=O)NCCCl`: the T/C (endpoint: mean survival time, dose: 7.0 mg/kg/injection, schedule: Q01DX001 (ip), vehicle: other) is 152 % of control and 175 % of control; the T/C (endpoint: mean survival time, dose: 10.0 mg/kg/injection, schedule: Q01DX001 (ip), vehicle: other) is 197 % of control; the T/C (endpoint: mean survival time, dose: 10.0 mg/kg/injection, schedule: Q01DX001 (ip), vehicle: saline + alcohol) was 347 % of control (2×) and 204 % of control; the T/C (endpoint: mean survival time, dose: 10.0 mg/kg/injection, schedule: Q04DX004 (ip), vehicle: other) is 256 % of control; the T/C (endpoint: mean survival time, dose: 15.0 mg/kg/injection, schedule: Q04DX004 (ip), vehicle: other) is 719 % of control; the T/C (endpoint: mean survival time, dose: 18.0 mg/kg/injection, schedule: Q01DX001 (ip), vehicle: saline + alcohol) is 263 % of control. Further, the T/C by setting is: (endpoint: mean survival time, dose: 20.0 mg/kg/injection, schedule: Q04DX004 (ip), vehicle: other) 629 % of control; (endpoint: mean survival time, dose: 27.0 mg/kg/injection, schedule: Q01DX001 (ip), vehicle: other) 335 % of control and 283 % of control and 316 % of control; (endpoint: mean survival time, dose: 27.0 mg/kg/injection, schedule: Q01DX001 (ip), vehicle: saline + alcohol) 358 % of control; (endpoint: mean survival time, dose: 27.0 mg/kg/injection, schedule: Q01DX001 (oral), vehicle: other) 481 % of control and 523 % of control and 549 % of control; (endpoint: mean survival time, dose: 30.0 mg/kg/injection, schedule: Q01DX001 (ip), vehicle: other) 385 % of control; (endpoint: mean survival time, dose: 30.0 mg/kg/injection, schedule: Q04DX004 (ip), vehicle: other) 621 % of control. In addition, the T/C is 342 % of control and 248 % of control (endpoint: mean survival time, dose: 31.0 mg/kg/injection, schedule: Q01DX001 (ip), vehicle: other); 373 % of control and 400 % of control and 473 % of control (endpoint: mean survival time, dose: 39.0 mg/kg/injection, schedule: Q01DX001 (ip), vehicle: other); 553 % of control and 633 % of control and 678 % of control (endpoint: mean survival time, dose: 40.0 mg/kg/injection, schedule: Q01DX001 (oral), vehicle: other); 466 % of control and 478 % of control and 532 % of control (endpoint: mean survival time, dose: 49.0 mg/kg/injection, schedule: Q01DX001 (ip), vehicle: other); 434 % of control and 471 % of control and 625 % of control (endpoint: mean survival time, dose: 60.0 mg/kg/injection, schedule: Q01DX001 (oral), vehicle: other); 120 % of control and 297 % of control (endpoint: mean survival time, dose: 62.0 mg/kg/injection, schedule: Q01DX001 (ip), vehicle: other). Further, the T/C runs as follows: (endpoint: median survival time, dose: 18.0 mg/kg/injection, schedule: Q## X001 (ip), vehicle: saline + alcohol) 188 % of control; (endpoint: median survival time, dose: 30.0 mg/kg/injection, schedule: Q## X001 (ip), vehicle: saline + alcohol) 241 % of control; (endpoint: median survival time, dose: 48.0 mg/kg/injection, schedule: Q## X001 (ip), vehicle: saline + alcohol) 297 % of control.
